Measurements published in US10633348B2, “Methods to treat lymphoplasmacytic lymphoma” (Dana-Farber Cancer Institute, Inc., priority 2013, dated 2020).
Where two headings read alike, the source gives them in different places.

Key:
Assay type in all cases: cell-based
BCWM.1 = test: CellTiter-Glo cell viability assay; conditions: BCWM1, 72 h
Experimental: (§1) CellTiter-Glo® Luminescent cell viability assay (Promega) was used to assess cell survival following treatment with the compounds described. Cells were seeded into 384 well plates with the EL406 Combination Washer Dispenser (BioTek Instruments, Inc.) and the compounds were injected into the cells culture media with the JANUS Automated Workstation (PerkinElmer Inc.). Cells were treated with a series diluted inhibitors (20˜0.04 μM) for 72 hours at 37° C. Luminescent measurement is performed using the 2104 Envision® Multilabel Reader (PerkinElmer Inc.).

MWCL-1 = test: CellTiter-Glo cell viability assay; conditions: 72 h
Experimental: as §1

OCI-Ly19 = test: CellTiter-Glo cell viability assay; conditions: Homo sapiens, OCI-LY19, 72 h
Experimental: as §1

Ramos = test: CellTiter-Glo cell viability assay; conditions: Homo sapiens, 72 h
Experimental: as §1

Abl = test: KiNativ kinase profiling in A375 cells
FYN = test: KiNativ kinase profiling in A375 cells
LYN = system: LYN
ZAK = system: ZAK
AGK = system: AGK
CDC2 = system: CDC2
CDK2 = system: CDK2
CDK6 = system: CDK6
CDK9 = system: CDK9
CK2a2 = system: CK2a2
DNAPK = system: DNAPK
FER = system: FER
FRAP = system: FRAP
FRK = system: FRK
GCK = system: GCK
GCN2 = system: GCN2
GSK3B = system: GSK3B
IRE1 = system: IRE1
KSR1 = system: KSR1
KSR1, KSR2 = test: KiNativ kinase profiling in A375 cells; conditions: Activation Loop, SEQ ID NO 70, 1.0 μM
MAP2K4 = system: MAP2K4
MAP3K6 = system: MAP3K6
MER, TYRO3 = test: KiNativ kinase profiling in A375 cells; conditions: Activation Loop, SEQ ID NO 102, 1.0 μM
MLKL = system: MLKL
MYO3A, MYO3B = test: KiNativ kinase profiling in A375 cells; conditions: Lys2, SEQ ID NO 115, 1.0 μM
NDR2 = system: NDR2
NEK7 = system: NEK7
p38b = system: p38b
PCTAIRE1 = system: PCTAIRE1
PFTAIRE1 = system: PFTAIRE1
PIK3CD = system: PIK3CD
PIK3CG = system: PIK3CG
PIP5K3 = system: PIP5K3
PKD2 = system: PKD2
PRPK = system: PRPK
RAF1 = system: RAF1
RSK2 domain2 = system: RSK2 domain2
RSK3 domain1 = system: RSK3 domain1
SMG1 = system: SMG1
SRC = system: SRC
TLK2 = system: TLK2
ULK1 = system: ULK1
YANK3 = system: YANK3

## CCN1CCN(Cc2ccc(NC(=O)c3ccc(C)c(Oc4cc(N)ncn4)c3)cc2C(F)(F)F)CC1 [(A-4), 3-((6-aminopyrimidin-4-yl)oxy)-N-(4-((4-ethylpiperazin-1-yl)methyl)-3-(trifluoromethyl)phenyl)-4-methylbenzamide]
BCWM.1
  EC50: 3.01 µM
MWCL-1
  EC50: 1.15 µM
OCI-Ly19
  EC50: 9.43 µM
Ramos
  EC50: 21.1 µM
Abl; ABL, ARG, Activation Loop, SEQ ID NO 1, 1.0 μM, A375 cells
  inhibition of kinase labeling: 95.5%
FYN; FYN, SRC, YES, Activation Loop, SEQ ID NO 50, 1.0 μM, A375 cells
  inhibition of kinase labeling: 71.2%
LYN
  inhibition of kinase labeling: 87.8%
ZAK
  inhibition of kinase labeling: 75.7%
AGK
  inhibition of kinase labeling: −31.4%
CDC2
  inhibition of kinase labeling: −2.3%
CDK2
  inhibition of kinase labeling: −3.5%
CDK6
  inhibition of kinase labeling: 13.1%
CDK9
  inhibition of kinase labeling: −16.2%
CK2a2
  inhibition of kinase labeling: −18.2%
DNAPK; ATP site peptide SEQ ID NO 37
  inhibition of kinase labeling: −61.5%
DNAPK; ATP site peptide SEQ ID NO 38
  inhibition of kinase labeling: −64.6%
FER
  inhibition of kinase labeling: 91.4%
FRAP
  inhibition of kinase labeling: −7.5%
FRK
  inhibition of kinase labeling: 91.1%
GCK
  inhibition of kinase labeling: 94.9%
GCN2
  inhibition of kinase labeling: 20.8%
GSK3B
  inhibition of kinase labeling: 0.5%
IRE1
  inhibition of kinase labeling: −2.2%
KSR1
  inhibition of kinase labeling: −22.0%
KSR1, KSR2
  inhibition of kinase labeling: −10.0%
MAP2K4
  inhibition of kinase labeling: −14.1%
MAP3K6
  inhibition of kinase labeling: −25.0%
MER, TYRO3
  inhibition of kinase labeling: 1.6%
MLKL
  inhibition of kinase labeling: −14.9%
MYO3A, MYO3B
  inhibition of kinase labeling: −15.3%
NDR2
  inhibition of kinase labeling: −10.9%
NEK7
  inhibition of kinase labeling: −7.2%
p38b
  inhibition of kinase labeling: 51.4%
PCTAIRE1
  inhibition of kinase labeling: −3.5%
PFTAIRE1
  inhibition of kinase labeling: 4.3%
PIK3CD
  inhibition of kinase labeling: 2.2%
PIK3CG
  inhibition of kinase labeling: −21.1%
PIP5K3
  inhibition of kinase labeling: 0.9%
PKD2
  inhibition of kinase labeling: −6.9%
PRPK
  inhibition of kinase labeling: −13.7%
RAF1
  inhibition of kinase labeling: 36.6%
RSK2 domain2
  inhibition of kinase labeling: −24.1%
RSK3 domain1
  inhibition of kinase labeling: −32.6%
SMG1
  inhibition of kinase labeling: −4.0%
SRC
  inhibition of kinase labeling: 76.1%
TLK2
  inhibition of kinase labeling: 7.1%
ULK1
  inhibition of kinase labeling: −6.0%
YANK3
  inhibition of kinase labeling: 27.7%

## CCN1CCN(Cc2ccc(NC(=O)c3ccc(C)c(Oc4ccnc(Nc5cnn(C)c5)n4)c3)cc2C(F)(F)F)CC1 [(A-14), N-(4-((4-ethylpiperazin-1-yl)methyl)-3-(trifluoromethyl)phenyl)-4-methyl-3-((2-((1-methyl-1H-pyrazol-4-yl)amino)pyrimidin-4-yl)oxy)benzamide]
BCWM.1
  EC50: 0.033 µM
MWCL-1
  EC50: 0.128 µM
OCI-Ly19
  EC50: 0.179 µM
Ramos
  EC50: 2.09 µM
Abl; 1 μM, A375 cells
  Abl inhibition: > 90%
Abl; ABL, ARG, Activation Loop, SEQ ID NO 200, 1.0 μM
  KiNativ inhibition: 98.4%
FYN; 1 μM, A375 cells
  FYN inhibition: 88.2%
FYN; FYN, SRC, YES, Activation Loop, SEQ ID NO 255, 1.0 μM
  KiNativ inhibition: 88.2%
LYN
  KiNativ inhibition: 85.7%
  LYN inhibition: 85.7%
ZAK
  KiNativ inhibition: 75.8%
  ZAK inhibition: 75.8%
